In patent US20240059675A1, “PIPERIDINYLPYRIDINYLCARBONITRILE DERIVATIVES AS INHIBITORS OF GLUTAMINYL-PEPTIDE CYCLOTRANSFERASE AND GLUTAMINYL-PEPTIDE CYCLOTRANSFERASE LIKE PROTEIN” (Boehringer Ingelheim International GmbH, priority 2022, published 2024) one finds IC50, efflux ratio and Papp A→B data, which are given here for 5 compounds.

Data set [1] deals with SIRPα signalling induced by A549 cells. The experiment in a line: Assay B: SIRPα signalling assay using A549 cells. It is filed as cell-based. To be noted: Homo sapiens, 48 h compound incubation, Jurkat PathHunter SIRPαV1 reporter cells, read-out: Inhibition of SIRPα signalling induced by A549 cells: IC50. The protocol: (§1) Two cell types are independently used: the Raji cell line (lymphoblast-like human cell line derived from B lymphocytes from a Burkitt's lymphoma patient in 1963) and A549 cells (adenocarcinomic human alveolar basal epithelial cells).
(§2) Test compounds were dissolved in 100% DMSO and serially diluted into a white 384-well microtiter cell culture plate (PerkinElmer #60076780 in case of Raji assay; PDL-coated plates Greiner #781945 in case of A549 assay). 5000 Raji cells (ATCC #CC86) or 5000 A549 cells (ATCC #CCL-185) in Assay Complete Cell Plating reagent 30 (DiscoverX 93-0563R30B) were added per well. The assay plate was incubated for 48 h at 37° C., 95% humidity and 5% CO2. 15000 reporter cells (Jurkat PathHunter SIRPαV1, DiscoverX #93-1135C19) were added to each well, and the plate was incubated for 5 h at 37° C., 95% humidity and 5% CO2. Bioassay reagent 1 of the PathHunter Bioassay detection kit (DiscoverX 93-0001) was added to each well of the plate using a multichannel pipette followed by a 15 min incubation at room temperature. Afterwards bioassay reagent 2 was added followed by 60 min incubation at room temperature (incubation in the dark).
(§3) The analysis of the data was performed using the luminescence signal generated by beta-galactosidase in the PathHunter reporter cell line. The luminescence measurement was done using a Pherastar Multi-Mode Reader. Dose-response curves & IC50 data were calculated with 4-parameter sigmoidal dose response formula.

A short description of data set [2]: Assay C: permeability in CACO-2 cells. In kind it is in vitro ADME. Particulars: human, pH 7.2; for efflux ratio: Caco-2, permeability B-A / permeability A-B; for Papp A→B: Caco-2, apical to basolateral.
Data set [3] concerns SIRPα signalling induced by Raji cells. Description: Assay B: SIRPα signalling assay using Raji cells. In kind it is cell-based. To be noted: Homo sapiens, 48 h compound incubation, Jurkat PathHunter SIRPαV1 reporter cells, read-out: Inhibition of SIRPα signalling induced by Raji cells: IC50. How it is done:
as §1, §2, §3

The target of a further data set is QPCTL (Homo sapiens (Human), UniProt Q9NXS2). Description: Assay A: biochemical QPCTL activity assay (MALDI-TOF MS, CD47 peptide substrate). Particulars: 0.5 nM enzyme, 10 μM CD47 peptide substrate; read-out: Inhibition of QPCTL: IC50.
The target of another data set is QPCT (Homo sapiens (Human), UniProt Q16769). Description: Assay A: biochemical QPCT activity assay (MALDI-TOF MS, CD47 peptide substrate). Particulars: 0.5 nM enzyme, 20 μM CD47 peptide substrate; read-out: Inhibition of QPCT: IC50.
Sequence of QPCT (Q16769 29-361): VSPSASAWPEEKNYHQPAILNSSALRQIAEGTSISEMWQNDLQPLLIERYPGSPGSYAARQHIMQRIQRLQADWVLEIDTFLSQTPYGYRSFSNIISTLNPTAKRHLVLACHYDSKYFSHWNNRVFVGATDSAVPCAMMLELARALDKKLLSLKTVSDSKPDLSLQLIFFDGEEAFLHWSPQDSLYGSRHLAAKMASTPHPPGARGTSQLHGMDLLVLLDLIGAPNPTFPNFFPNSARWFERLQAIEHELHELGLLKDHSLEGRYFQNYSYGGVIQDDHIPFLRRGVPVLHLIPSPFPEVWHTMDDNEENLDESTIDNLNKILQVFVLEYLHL

Sequence of QPCTL (Q9NXS2 whole entry): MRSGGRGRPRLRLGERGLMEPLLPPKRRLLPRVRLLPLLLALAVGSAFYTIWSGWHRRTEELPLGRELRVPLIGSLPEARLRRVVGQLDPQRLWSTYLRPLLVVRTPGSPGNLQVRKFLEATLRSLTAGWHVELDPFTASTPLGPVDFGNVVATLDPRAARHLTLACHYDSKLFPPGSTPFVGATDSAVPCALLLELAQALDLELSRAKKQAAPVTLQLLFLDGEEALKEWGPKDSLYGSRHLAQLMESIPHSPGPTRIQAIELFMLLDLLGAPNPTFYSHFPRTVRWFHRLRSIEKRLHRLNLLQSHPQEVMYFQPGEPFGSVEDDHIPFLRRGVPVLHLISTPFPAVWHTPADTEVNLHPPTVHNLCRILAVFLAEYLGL

By IC50 is commonly meant the concentration that gives 50% inhibition. By efflux ratio is commonly meant the permeability from basolateral to apical divided by that in the opposite direction, in the common usage. One may read the Papp A→B as how fast a substance crosses the layer from the apical side. Low values mean slow passage, high ones fast passage. For `Cn1cnnc1C1(F)CCN(c2c(C#N)ccnc2-c2ccnnc2)CC1` [Example 22], the IC50 in data set [1] amounted to 103 nM; in data set [3] it was 653 nM; at QPCTL, 3 nM; on QPCT, 12 nM. In addition, the efflux ratio in data set [2] came to 10. In data set [2], this compound displayed a Papp A→B of 0.2 ×10⁻⁶ cm/s.
For `Cn1cnnc1C1(F)CCN(c2c(C#N)ccnc2-c2cnc(F)c(OC3CC3)c2)CC1` [Example 27], the IC50 amounted to 39 nM in data set [1], 176 nM in data set [3], 3 nM on QPCTL and 5 nM at QPCT. For the same compound, the efflux ratio in data set [2] came to 2. This compound also showed a Papp A→B in data set [2] of 36 ×10⁻⁶ cm/s.
Turning to `Cn1cnnc1C1(F)CCN(c2c(C#N)ccnc2-c2cnc3nn(C4(C(F)(F)F)CC4)cc3c2)CC1` [Example 30], the IC50 in data set [1] stood at 47 nM; in data set [3], 87 nM; at QPCTL, 2 nM; at QPCT it was 2 nM. Also, the efflux ratio in data set [2] was determined as 54.9. Besides, in data set [2], the Papp A→B turned out to be 0.5 ×10⁻⁶ cm/s.
As for `Cn1cnnc1C1(F)CCN(c2c(C#N)ccnc2-c2cnc3nn(C4(C)CC(F)(F)C4)cc3c2)CC1` [Example 31], the IC50 came to 21 nM in data set [1], 179 nM in data set [3], 2 nM on QPCTL and 3 nM at QPCT. In data set [2], the efflux ratio came to 27.6. The compound also came in with a Papp A→B in data set [2] of 1.7 ×10⁻⁶ cm/s.
For `Cn1cnnc1C1(F)CCN(c2c(C#N)ccnc2-c2cnc3nn(C(C)(C)c4ccc(F)cc4)cc3c2)CC1` [Example 32], the IC50 stood at 3 nM in data set [1], 6 nM in data set [3], 1 nM on QPCTL and 1 nM on QPCT. For the same compound, the efflux ratio in data set [2] is 12.6. Besides, the Papp A→B in data set [2] turned out to be 3.5 ×10⁻⁶ cm/s.
